Data taken from ChEMBL document CHEMBL3779863, “Ionic liquid-promoted one-pot synthesis of thiazoleimidazo[2,1-b][1,3,4]thiadiazole hybrids and their antitubercular activity” (Medchemcomm, 2016).
Converted amounts (≈) assume the structure as drawn.

Tested on: Mycobacterium tuberculosis
Experiment: Antimycobacterial activity against extensively drug resistant Mycobacterium tuberculosis H37Rv ATCC 27294 after 28 days by agar dilution method
Format: functional
Conditions: H37Rv ATCC 27294, 672 h

| Structure (SMILES) | MIC [µM] |
| --- | --- |
| Cc1nn2c(/C=N/Nc3nc(-c4ccc(F)cc4)cs3)c(-c3ccc(Cl)cc3)nc2s1 | 53.9 (≈ 25.3 µg/mL) |
| Cc1ccc(-c2nc3sc(C)nn3c2/C=N/Nc2nc(-c3ccc(Cl)cc3)cs2)cc1 | 53.9 (≈ 25 µg/mL) |
| Cc1ccc(-c2csc(N/N=C/c3c(-c4ccc(C)cc4)nc4sc(C)nn34)n2)cc1 | 56.3 (≈ 25 µg/mL) |
| COc1ccc(-c2csc(N/N=C/c3c(-c4ccc(OC)cc4)nc4sc(C(F)(F)F)nn34)n2)cc1 | 94.3 (≈ 50 µg/mL) |
| COc1ccc(-c2csc(N/N=C/c3c(-c4ccc(C)cc4)nc4sc(C)nn34)n2)cc1 | 109 (≈ 50 µg/mL) |
| Fc1ccc(-c2csc(N/N=C/c3c(-c4ccc(Cl)cc4)nc4sc(C(F)(F)F)nn34)n2)cc1 | 12 (≈ 6.26 µg/mL) |
| Cc1ccc(-c2csc(N/N=C/c3c(-c4ccc(Cl)cc4)nc4sc(C)nn34)n2)cc1 | 108 (≈ 50.1 µg/mL) |
| COc1ccc(-c2nc3sc(C(F)(F)F)nn3c2/C=N/Nc2nc(-c3ccc(C)cc3)cs2)cc1 | 24.1 (≈ 12.4 µg/mL) |
| COc1ccc(-c2nc3sc(C(F)(F)F)nn3c2/C=N/Nc2nc(-c3ccc(F)cc3)cs2)cc1 | 24.1 (≈ 12.5 µg/mL) |
| Cc1ccc(-c2nc3sc(C)nn3c2/C=N/Nc2nc(-c3ccc(F)cc3)cs2)cc1 | 13.9 (≈ 6.25 µg/mL) |
| COc1ccc(-c2nc3sc(C)nn3c2/C=N/Nc2nc(-c3ccc([N+](=O)[O-])cc3)cs2)cc1 | 12.7 (≈ 6.25 µg/mL) |
| COc1ccc(-c2nc3sc(C)nn3c2/C=N/Nc2nc(-c3ccc(C)cc3)cs2)cc1 | 109 (≈ 50 µg/mL) |
| Cc1ccc(-c2nc3sc(C)nn3c2/C=N/Nc2nc(-c3ccc([N+](=O)[O-])cc3)cs2)cc1 | 26.3 (≈ 12.5 µg/mL) |
| O=[N+]([O-])c1ccc(-c2csc(N/N=C/c3c(-c4ccc(Cl)cc4)nc4sc(C(F)(F)F)nn34)n2)cc1 | 91.1 (≈ 50.1 µg/mL) |
| COc1ccc(-c2csc(N/N=C/c3c(-c4ccc(OC)cc4)nc4sc(C)nn34)n2)cc1 | 105 (≈ 50 µg/mL) |
| COc1ccc(-c2nc3sc(C)nn3c2/C=N/Nc2nc(-c3ccc(F)cc3)cs2)cc1 | 108 (≈ 50 µg/mL) |
| COc1ccc(-c2csc(N/N=C/c3c(-c4ccc(Cl)cc4)nc4sc(C)nn34)n2)cc1 | 52.1 (≈ 25 µg/mL) |
| FC(F)(F)c1nn2c(/C=N/Nc3nc(-c4ccc(Cl)cc4)cs3)c(-c3ccc(Cl)cc3)nc2s1 | 92.9 (≈ 50.1 µg/mL) |
| COc1ccc(-c2nc3sc(C(F)(F)F)nn3c2/C=N/Nc2nc(-c3ccc(Cl)cc3)cs2)cc1 | 93.6 (≈ 50.1 µg/mL) |
| Cc1nn2c(/C=N/Nc3nc(-c4ccc(Cl)cc4)cs3)c(-c3ccc(Cl)cc3)nc2s1 | 103 (≈ 50 µg/mL) |
| COc1ccc(-c2csc(N/N=C/c3c(-c4ccc(Cl)cc4)nc4sc(C(F)(F)F)nn34)n2)cc1 | 11.7 (≈ 6.26 µg/mL) |
| Cc1ccc(-c2csc(N/N=C/c3c(-c4ccc(Cl)cc4)nc4sc(C(F)(F)F)nn34)n2)cc1 | 6.03 (≈ 3.13 µg/mL) |
| COc1ccc(-c2nc3sc(C)nn3c2/C=N/Nc2nc(-c3ccc(Cl)cc3)cs2)cc1 | 26 (≈ 12.5 µg/mL) |
| O=C(O)c1cn(C2CC2)c2cc(N3CCNCC3)c(F)cc2c1=O [CIPROFLOXACIN] | 9.44 (≈ 3.13 µg/mL) |
| CC[C@@H](CO)NCCN[C@@H](CC)CO [ETHAMBUTOL] | 15.3 (≈ 3.13 µg/mL) |
| NNC(=O)c1ccncc1 [ISONIAZID] | 0.729 (≈ 0.1 µg/mL) |
